Results as given in patent publication US6608086B2, “Dihydropyridines and new uses thereof” (Synaptic Pharmaceutical Corporation, priority 1993, dated 2003).
Like-named read-outs stand apart in the source and are kept apart here.

How the values were obtained:
α2A receptor = target: T1, α2A receptor (Homo sapiens, UniProt P08913); experiment: Competition binding, [3H]rauwolscine, human α2A receptor
T1 construct: host or cells: LM(tk-) cells, line L-α2A
T1 sequence (P08913 1-465): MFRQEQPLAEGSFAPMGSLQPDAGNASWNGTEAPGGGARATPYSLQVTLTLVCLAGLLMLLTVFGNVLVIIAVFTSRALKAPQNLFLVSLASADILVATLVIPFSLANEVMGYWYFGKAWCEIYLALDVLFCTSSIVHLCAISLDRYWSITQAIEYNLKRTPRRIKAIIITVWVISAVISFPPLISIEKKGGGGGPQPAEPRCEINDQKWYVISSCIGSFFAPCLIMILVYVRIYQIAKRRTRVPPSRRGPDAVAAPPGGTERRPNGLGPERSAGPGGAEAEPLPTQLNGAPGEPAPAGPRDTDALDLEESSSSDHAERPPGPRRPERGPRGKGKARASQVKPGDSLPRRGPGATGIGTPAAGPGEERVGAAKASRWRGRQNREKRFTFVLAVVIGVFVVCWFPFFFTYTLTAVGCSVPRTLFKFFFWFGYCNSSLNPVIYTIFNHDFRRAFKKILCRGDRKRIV
Summary of the method: (§1)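 Lysates of LM(tk−) cells stably expressing each α2 subtype were suspended in 25 mM glycylglycine buffer (pH 7.6 at room temperature). Equilibrium competition binding used 0.5 nM [3H]rauwolscine, with nonspecific binding defined by 10 μM phentolamine; bound radioligand was separated by GF/B filtration.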

α2C receptor = target: T2, α2C receptor (Homo sapiens, UniProt P18825); experiment: Competition binding, [3H]rauwolscine, human α2C receptor
T2 construct: host or cells: LM(tk-) cells, line L-α2C
T2 sequence (P18825 1-462): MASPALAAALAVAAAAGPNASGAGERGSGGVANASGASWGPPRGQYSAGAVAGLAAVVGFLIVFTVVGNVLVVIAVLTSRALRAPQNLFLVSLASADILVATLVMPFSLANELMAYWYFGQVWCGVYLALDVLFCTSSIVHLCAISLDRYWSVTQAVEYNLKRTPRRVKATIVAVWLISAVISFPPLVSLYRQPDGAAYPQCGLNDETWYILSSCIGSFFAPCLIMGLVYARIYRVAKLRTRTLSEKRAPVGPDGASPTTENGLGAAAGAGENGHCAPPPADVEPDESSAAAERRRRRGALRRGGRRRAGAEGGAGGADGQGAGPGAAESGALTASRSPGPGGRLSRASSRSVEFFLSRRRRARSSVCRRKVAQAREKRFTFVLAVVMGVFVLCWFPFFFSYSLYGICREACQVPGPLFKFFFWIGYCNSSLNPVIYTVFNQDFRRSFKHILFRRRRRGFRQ
Summary of the method: as §1

[1] = target: T3, α1C Human Adrenergic Receptor (Homo sapiens, UniProt P35348); experiment: Radioligand binding, [3H]prazosin, cloned human α1C adrenergic receptor; settings: LM(tk-) cell membranes
T3 construct: The entire coding region of α1C (1401 bp); expressed in transfected cells
T3 sequence (P35348 1-466): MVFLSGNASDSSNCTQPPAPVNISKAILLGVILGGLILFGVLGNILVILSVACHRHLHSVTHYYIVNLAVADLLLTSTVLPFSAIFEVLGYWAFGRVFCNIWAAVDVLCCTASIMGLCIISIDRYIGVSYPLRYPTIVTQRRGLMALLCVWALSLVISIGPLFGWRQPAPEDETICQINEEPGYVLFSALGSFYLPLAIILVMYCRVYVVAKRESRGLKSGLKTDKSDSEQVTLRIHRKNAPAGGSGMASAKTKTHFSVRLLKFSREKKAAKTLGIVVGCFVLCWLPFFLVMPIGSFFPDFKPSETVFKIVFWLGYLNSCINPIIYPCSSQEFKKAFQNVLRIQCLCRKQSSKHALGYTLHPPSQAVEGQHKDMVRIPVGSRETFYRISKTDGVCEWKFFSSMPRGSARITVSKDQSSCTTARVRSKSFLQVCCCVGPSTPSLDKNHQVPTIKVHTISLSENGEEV
Summary of the method: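 Read-out is filter-retained [3H]prazosin (0.5 nM) bound to membranes of LM(tk−) cells stably carrying the human α1C receptor. Incubation ran 20 min at 37° C. at pH 7.5, with 10 μM phentolamine marking nonspecific binding.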

[2] = [3H]rauwolscine, human receptor, LM(tk-) cell lysates, mean, read-out: PKi alpha-2 2a (converted)
[3] = [3H]rauwolscine, human receptor, LM(tk-) cell lysates, mean, read-out: PKi alpha-2 2c (converted)
[4] = cloned human receptor, mean, read-out: PKi alpha-1 1c (converted)
[5] = [3H]rauwolscine, human α2A receptor, LM(tk-) cells, read-out: PKi alpha-2 2a (converted)
[6] = PKi alpha-2 2c, [3H]rauwolscine, human α2C receptor, LM(tk-) cells
[7] = PKi alpha-1 1c, cloned human α1C receptor
[8] = cloned human α1C receptor, read-out: PKi alpha-1 1c (converted)
[9] = [3H]rauwolscine, human α2C receptor, LM(tk-) cells, read-out: PKi alpha-2 2c (converted)

Which results are given for `COC(=O)C1(c2ccccc2)CCN(CCCNC(=O)C2=C(CCCCN)NC(C)=C(C(C)=O)C2c2ccc([N+](=O)[O-])cc2)CC1` (centres unmarked) [Example 178, 5-Acetyl-2-(4-aminobutyl)-1,4-dihydro-3-{N-[3-(4-methoxycarbonyl-4-phenylpiperidin-1-yl)propyl]}carboxamido-6-methyl-4-(4-nitrophenyl) pyridine]?
Ki (α2A receptor; [2]): 912 nM; Ki (α2C receptor; [3]): 398 nM; melting point: 62 to 65 °C; Ki [1, 4]: 2.57 nM

With `CCNC(=O)C1=C(CC)NC(CC)=C(C(=O)NCCCN2CCC(C(=O)OC)(c3ccccc3)CC2)C1c1ccc([N+](=O)[O-])cc1` (centres unmarked) [Example 180, 2,6-Diethyl-1,4-dihydro-5-(N-ethyl)carboxamido-3-{N-[3-(4-methoxycarbonyl-4-phenylpiperidin-1-yl)propyl]}carboxamido-4-(4-nitrophenyl)pyridine] as the compound, how does the Ki (α2A receptor) read?
The Ki was 6920 nM.

What about the Ki (α2C receptor; PKi alpha-2 2c) of the same compound?
Its Ki is 5750 nM.

What about the melting point of the same compound?
The melting point was 217 °C (dec.).

What about the Ki [1, 4] of the same compound?
The Ki was 3.63 nM.

For `CCNC(=O)C1=C(CC)NC(COCCN)=C(C(=O)NCCCN2CCC(C(=O)OCC)(c3ccccc3)CC2)C1c1ccc([N+](=O)[O-])cc1` (centres unmarked) [Example 192, 2-[(2-Aminoethoxy)methyl]-3-{N-[3-(4-ethoxycarbonyl-4-phenyl-piperidin-1-yl)propyl]}carboxamido-1,4-dihydro-6-ethyl-5-(N-ethyl)carboxamido-4-(4-nitrophenyl)pyridine], which Ki (α2A receptor; [2]) is on record?
Its Ki is 3720 nM.

And the Ki (α2C receptor; [3])?
Its Ki is 1480 nM.

What about the melting point of the same compound?
Its melting point is 112 to 114 °C.

And the Ki [1, 4]?
Its Ki is 3.09 nM.

Which results are given for `CCOC(=O)C1(c2ccccc2)CCN(CCCNC(=O)C2=C(COCCN)NC(CC)=C(C(N)=O)C2c2ccc([N+](=O)[O-])cc2)CC1` (centres unmarked) [Example 193, 2-[(2-Aminoethoxy)methyl]-5-carboxamido-3-{N-[3-(4-ethoxycarbonyl-4-phenylpiperidin-1-yl)propyl]}carboxamido-1,4-dihydro-6-ethyl-4-(4-nitrophenyl)pyridine]?
Ki (α2A receptor; [2]): 1020 nM; Ki (α2C receptor; [3]): 631 nM; melting point: 87 to 89 °C; Ki [1, 4]: 1.58 nM

What does the source list for `CCOC(=O)C1(c2ccccc2)CCN(CCCNC(=O)C2=C(COCCN)NC(CC)=C(C(=O)NC)C2c2ccc([N+](=O)[O-])cc2)CC1` (centres unmarked) [Example 194, 2-[(2-Aminoethoxy)methyl]-3-{N-[3-(4-ethoxycarbonyl-4-phenylpiperidin-1-yl)propyl]}carboxamido-1,4-dihydro-6-ethyl-5-(N-methyl) carboxamido-4-(4-nitrophenyl) pyridine]?
Ki (α2A receptor; [2]): 3160 nM; Ki (α2C receptor; [3]): 1070 nM; melting point: 51 to 53 °C; Ki [1, 4]: 3.72 nM

With `CCOC(=O)C1(c2ccccc2)CCN(CCCNC(=O)C2=C(COCCN)NC(CC)=C(C(=O)O)C2c2ccc([N+](=O)[O-])cc2)CC1` (centres unmarked) [Example 196, 2-[(2-Aminoethoxy)methyl]-3-{N-[3-(4-ethoxycarbonyl-4-phenylpiperidin-1-yl)propyl]}carboxamido-1,4-dihydro-6-ethyl-4-(4-nitrophenyl)pyridine-5-carboxylic Acid] as the compound, how does the Ki (α2A receptor; [2]) read?
Its Ki is 8320 nM.

And the Ki (α2C receptor; [3])?
Its Ki is 3090 nM.

What about the melting point of the same compound?
The melting point was 103 to 105 °C.

What about the Ki [1, 4] of the same compound?
Its Ki is 38.9 nM.

What does the source list for `CCC1=C(C(N)=O)C(c2ccc([N+](=O)[O-])cc2)C(C(=O)NCCCN2CCC(C(=O)OC)(c3ccccc3)CC2)=C(CC)N1` (centres unmarked) [Example 200]?
Ki (α2A receptor): 5500 nM; Ki (α2C receptor; PKi alpha-2 2c): 1620 nM; melting point: 112 to 114 °C; Ki [1, 4]: 4.37 nM

For `CC(=O)C1=C(C)NC(COCCN)=C(C(=O)NCCCN2CCC(c3ccccc3)(c3ccccc3)CC2)C1c1ccc2c(c1)OCO2` (centres unmarked) [Example 239, 5-Acetyl-2-((2-aminoethyl)oxy)methyl-1,4-dihydro-6-methyl-4-(3,4-methylenedioxy)phenyl-3-(N-(3-(4,4-dipheylpiperidin-1-yl)propyl))carboxamidopyridine], which Ki (α2A receptor; [5]) is on record?
The Ki was 832 nM.

And the Ki (α2C receptor; [6])?
Its Ki is 263 nM.

And the melting point?
Its melting point is 80 °C (dec.).

And the Ki [1, 7]?
Its Ki is 2.04 nM.

Which results are given for `CCOC(=O)C1(c2ccccc2)CCN(CCCNC(=O)C2=C(COC)NC(CC)=C(C(=O)O)C2c2ccc([N+](=O)[O-])cc2)CC1` (centres unmarked) [Example 240, 3-(N-3-(4-Ethoxycarbonyl-4-phenylpiperidin-1-yl)propyl)carboxamido-6-ethyl-1,4-dihydro-2-(methyloxy)methyl-4-(4-nitro)phenylpyridine-5-carboxylic Acid]?
Ki (α2A receptor): 18600 nM; Ki (α2C receptor; PKi alpha-2 2c): 11700 nM; melting point: 116 to 126 °C; Ki [1, 8]: 26.9 nM

With `COC(=O)C1(c2ccccc2)CCN(CCCNC(=O)C2=C(COCCCN)NC(C)=C(C(C)=O)C2c2ccc([N+](=O)[O-])cc2)CC1` (centres unmarked) [Example 241, 5-Acetyl-2-((3-aminopropyl)oxy)methyl-1,4-dihydro-3-(N-(3-(4-methoxycarbonyl-4-phenylpiperidin-1-yl)propyl))carboxamido-6-methyl-4-(4-nitro)phenylpyridine] as the compound, how does the Ki (α2A receptor) read?
Its Ki is 1580 nM.

What about the Ki (α2C receptor; PKi alpha-2 2c) of the same compound?
Its Ki is 398 nM.

And the melting point?
Its melting point is 70 °C (dec.).

And the Ki [1, 8]?
Its Ki is 4.37 nM.

Which Ki (α2A receptor; [5]) does the source give for `CC(=O)C1=C(C)NC(COCCN)=C(C(=O)NCCCN2CCC(c3ccccc3)(c3ccccc3)CC2)C1c1ccc(F)cc1` (centres unmarked) [Example 242, 5-Acetyl-2-((2-aminoethyl)oxy)methyl-4-(4-fluoro)phenyl-1,4-dihydro-6-methyl-3-(N-(3-(4,4-diphenylpiperidin-1-yl)propyl))carboxamidopyridine] here?
The Ki was 1410 nM.

And the Ki (α2C receptor; [6])?
Its Ki is 257 nM.

What about the melting point of the same compound?
Its melting point is 75 °C (dec.).

And the Ki [1, 7]?
Its Ki is 3.98 nM.

For `CCOC(=O)C1(c2ccccc2)CCN(CCCNC(=O)C2=C(COCCN)NC(C)=C(C(C)=O)C2c2ccc3c(c2)OCO3)CC1` (centres unmarked) [Example 244, 5-Acetyl-2-((2-aminoethyl)oxy)methyl-3-(N-(3-(4-ethoxycarbonyl-4-phenylpiperidin-1-yl)propyl)) carboxamido-1,4-dihydro-6-methyl-4-(3,4-methylenedioxy) phenylpyridine], which Ki (α2A receptor; [5]) is on record?
Its Ki is 1020 nM.

What about the Ki (α2C receptor; [9]) of the same compound?
The Ki was 97.7 nM.

And the melting point?
Its melting point is 55 °C (dec.).

And the Ki [1, 8]?
The Ki was 3.47 nM.

Which Ki (α2A receptor; [5]) does the source give for `CCC1=C(C(=O)OCCO)C(c2ccc([N+](=O)[O-])cc2)C(C(=O)NCCCN2CCC(c3ccccc3)(c3ccccc3)CC2)=C(COC)N1` (centres unmarked) [Example 246] here?
The Ki was 676 nM.

What about the Ki (α2C receptor; [9]) of the same compound?
The Ki was 2400 nM.

What about the melting point of the same compound?
Its melting point is 73 °C (dec.).

What about the Ki [1, 7] of the same compound?
Its Ki is 2.75 nM.

Which results are given for `CCC1=C(C(=O)NCCOC)C(c2ccc([N+](=O)[O-])cc2)C(C(=O)NCCCN2CCC(c3ccccc3)(c3ccccc3)CC2)=C(COC)N1` (centres unmarked) [Example 247, 6-Ethyl-1,4-dihydro-5-N-((2-methoxy)ethyl)carboxamido-2-(methyloxy)methyl-4-(4-nitro)phenyl-3-(N-(3-(4,4-diphenylpiperidin-1-yl)propyl)) carboxamidopyridine]?
Ki (α2A receptor; [5]): 589 nM; Ki (α2C receptor; [9]): 302 nM; melting point: 70 °C (dec.); Ki [1, 7]: 24.5 nM
